Measurements from patent US8569489B2 (A.B. Intelpharm Limited, priority 2007, dated 2013).
Counter-ions that a name gives are not always drawn. Like-named read-outs stand apart in the source and are kept apart here.

Assays:
[1] = system: mice; assay: Acute toxicity, mice perorally
[2] = system: isolated guinea pig ileum (spasmogenic effect of histamine); assay: Isolated guinea pig ileum, suppression of the spasmogenic effect of histamine; assay type: cell-based; settings: histamine spasm, read-out: Antihistaminic activity, isolated ileum of guinea pig, IC50
From the text: Study of the antihistaminic activity of the compounds on which a claim is made was done using known methodologies (Rukovodstvo po eksperimental'nomu izucheniyu novykh farmakologicheskikh veshchestv [Manual on experimental study of new pharmacological substances], Moscow, 2005, p. 489) on isolated guinea pig ileum (suppression of the spasmogenic effect of histamine) and on anesthetized guinea pigs (antagonism in relation to the bronchoconstrictor effect of histamine). In tests on intact animals, substances were administered intravenously (5 minutes before the administration of histamine) and orally (2 hours before the beginning of the study).

[3] = system: H1-histamine receptors (bronchoconstrictor effect of histamine); assay: Anesthetized guinea pigs, antagonism of the bronchoconstrictor effect of histamine (histamine bronchospasm model); assay type: in vivo, guinea pig; settings: for Antihistaminic activity, guinea pigs in vivo, intravenous administration, ED50 / Antihistaminic activity, guinea pigs in vivo, peroral administration, ED50: anesthetized guinea pigs; for Antihistaminic activity, guinea pigs in vivo, intravenous administration, ED50: 5 minutes before histamine; for Antihistaminic activity, guinea pigs in vivo, peroral administration, ED50: orally 2 hours before the study; for ED50: Cavia porcellus
Description: In tests on intact animals, substances were administered intravenously (5 minutes before the administration of histamine) and orally (2 hours before the beginning of the study).

[4] = pH of aqueous solution of salts; assay type: physicochemical

Row | SMILES | Acute toxicity, LD50 [1] | IC50 [2] | Antihistaminic activity, guinea pigs in vivo, intravenous administration, ED50 [3] | Antihistaminic activity, guinea pigs in vivo, peroral administration, ED50 [3] | further results
1 | Cl.Cl.Cn1c(=O)c2c(ncn2CCCCN2CCN(C(c3ccccc3)c3ccccc3)CC2)n(C)c1=O [II-f] | 750.0 mg/kg | 17 nM | 0.1 mg/kg | <1.5 mg/kg | 
2 | CCOC(=O)N1CCC(=C2c3ccc(Cl)cc3CCc3cccnc32)CC1 [Loratadine, reference compound] |  |  |  |  | IC50 ([2]; Cavia porcellus): 472 nM; ED50 ([3]; iv, read-out: Antihistaminic activity, guinea pigs in vivo, intravenous administration, ED50): 0.3 mg/kg; ED50 ([3]; po, read-out: Antihistaminic activity, guinea pigs in vivo, peroral administration, ED50): 0.9 mg/kg; Duration of effective blockade of H1-histamine receptors ([3]; histamine bronchospasm model, oral dose of 3 mg/kg): 18 h
3 | Cl.Cl.Cn1c(=O)n(CCCN2CCN(C(c3ccccc3)c3ccccc3)CC2)c(=O)c2[nH]cnc21 [I-q] | >1000.0 mg/kg | 42 nM | 0.4 mg/kg |  | 
4 | Cl.Cl.Cn1c(=O)[nH]c(=O)c2c1ncn2CCCN1CCN(C(c2ccccc2)c2ccccc2)CC1 [II-e] | 900.0 mg/kg | 19 nM | 0.1 mg/kg |  | 
5 | Cn1c(=O)n(CCCN2CCN(C(c3ccccc3)c3ccccc3)CC2)c(=O)c2c1ncn2Cc1ccc(F)cc1 [I-e] |  | 430 nM |  |  | 
6 | Cn1c(=O)n(CC(O)CN2CCN(C(c3ccccc3)c3ccc(Cl)cc3)CC2)c(=O)c2c1ncn2Cc1ccccc1 (stereo not shown) [I-aa, 1-[2-oxy-3-(4^1-chlorbenzhydryl-4-piperazinyl-1)propyl]-3-methyl-7-benzylxanthine] |  | 536 nM |  |  | 
7 | Cn1c(=O)[nH]c(=O)c2c1ncn2CCCCN1CCN(C(c2ccccc2)c2ccccc2)CC1 [Dihydrochloride, 7-/4-(4-benzhydrylpiperazinyl-1)butyl/-3-methylxanthine] |  |  |  |  | pH of aqueous solution [4]: 2.45
8 | Cl.Cl.Cn1c(=O)n(CCCCN2CCN(C(c3ccccc3)c3ccccc3)CC2)c(=O)c2c1ncn2Cc1ccc(F)cc1 [I-j] | 400.0 mg/kg | 227 nM |  |  | 
9 | Cn1cnc2c1c(=O)n(CC(O)CN1CCN(C(c3ccccc3)c3ccc(Cl)cc3)CC1)c(=O)n2C (stereo not shown) [I-y, 1-[2-oxy-3-(4^1-chlorbenzhydryl-4-piperazinyl-1)propyl]-3,7-dimethylxanthine] |  | 123 nM |  |  | 
10 | Cl.Cl.Cn1c(=O)c2c(ncn2CC(O)CN2CCN(C(c3ccc(F)cc3)c3ccc(F)cc3)CC2)n(C)c1=O (racemic) [II-j] | >1000.0 mg/kg |  |  |  | 
11 | Cl.Cl.Cn1c(=O)c2c(ncn2CC(O)CN2CCN(C(c3ccccc3)c3ccccc3)CC2)n(C)c1=O (stereo not shown) [II-h, 1,3-dimethyl-7-[2-oxy-3-(benzhydryl-4-piperazinyl-1)propyl]xanthine dihydrochloride] | >1000.0 mg/kg |  | 0.1 mg/kg | 2.0 mg/kg | 
12 | Cl.Cl.Cn1c(=O)n(CCCCCN2CCN(C(c3ccc(F)cc3)c3ccc(F)cc3)CC2)c(=O)c2c1ncn2Cc1ccccc1 [I-n] | 250 mg/kg | 253 nM | 1.2 mg/kg | 3.0 mg/kg | 
13 | Cl.Cl.Cn1c(=O)n(CCCCN2CCN(C(c3ccccc3)c3ccccc3)CC2)c(=O)c2[nH]cnc21 [I-s, 1-[4-(benzhydryl-4-piperazinyl-1)butyl]-3-methylxanthine dihydrochloride] | >750.0 mg/kg | 26 nM | 0.2 mg/kg | 0.3 mg/kg | 
14 | Cl.Cl.Cn1c(=O)c2c(ncn2CCCN2CCN(C(c3ccccc3)c3ccccc3)CC2)n(C)c1=O [II-d] | >1000.0 mg/kg | 12 nM | 0.05 mg/kg |  | 
15 | Cn1c(=O)n(CC(O)CN2CCN(C(c3ccccc3)c3ccccc3)CC2)c(=O)c2c1ncn2Cc1ccccc1 (stereo not shown) [I-z, 1-[2-oxy-3-(benzhydryl-4-piperazinyl-1)-propyl]-3-methyl-7-benzylxanthine] |  | 524 nM |  |  | 
16 | Cl.Cl.Cn1cnc2c1c(=O)n(CCCCN1CCN(C(c3ccccc3)c3ccccc3)CC1)c(=O)n2C [I-v] | >1000.0 mg/kg | 32 nM | 0.2 mg/kg | >1.5 mg/kg | 
